For assay [1] the following is noted: topical application or systemic injection; cited from earlier work.
Assay [2] concerns mouse vasa deferentia (MVD) preparation. Briefly: mouse vas deferens test (MVD). It counts as cell-based. The following applies: inhibition of contractions in vitro, active at IC50 of 5.0 μM or less. The text has this:
Med. Assoc. 217, 1392 (1971)]. […] Opth. 7, 921-923 (1975); Green and Pederson, Effect of delta-9 Tetrahydrocannabinol on Aqueous Dynamics and Ciliary Body Permeability in the Rabbit Eye., Exptl. Eye Research 15, 499-507 (1973); Colasanti, Craig and Allara, Intraocular Pressure, Ocular Toxicity and Neurotoxicity after Administration of Cannabinol or Cannibigerol, Exptl. Eye Research 39, 252-259 (1984)]. Similarly, synthetic cannabinoids also reduce intraocular pressure [Green, Symunds, Oliver and Elijah, Intraocular Pressure Following Systemic Administration of Cannabinoids, Curr Eye Research 2, 247-253 (1982); Tiedeman, Shields, Weber, Crow, Coccetto, Harris and Howes, Ophthalmology, 88, 270-277 (1981); Colasanti et al., supra]. Cannabinoid receptor binding sites can be defined as those to which radio-labelled 4-(1,1-dimethylheptyl)-2,3'-dihydroxy-6'alpha-(3-hydroxypropyl)-1',2',3',4',5',6'-hexahydrobiphenyl (CP 55940) binds in a specific and saturable manner, and the binding sites are heterogeneously distributed in the brain [Devane, Dysarz, Johnson, Melvin and Howlett, Determination and Characterization of a Cannabinoid Receptor in Rat Brain, Molecular Pharm. 34, 605-613 (1988)]. Natural and synthetic cannabinoids and representative examples of the compounds of the present invention bind to CP 55940 binding sites. […]

By IC50 is commonly meant the concentration needed to halve the response being measured. The low end stands for higher potency, the high end for lower potency.

On to `CCCCCc1cc(O)c2c(c1)OC(C)(C)[C@@H]1CCC(C)=C[C@@H]21` [delta-9 tetrahydrocannabinol], for which, in assay [1], the “effect on intraocular pressure” value is listed as “reduces intraocular pressure”.
In turn, `O=C(c1ccc2ccccc2c1)c1cn(CCN2CCOCC2)c2ccccc12` [Example 1S] returned an IC50 in assay [2] of 50 nM.

Values taken from patent publication US5013837A, “3-Arylcarbonyl-1H-indole-containing compounds” (Sterling Drug Inc., priority 1990, dated 1991).
